Patent US20230331655A1, “HYDROXYN[…] AND METHODS OF USE THEREOF” (UNIVERSITY OF MARYLAND, BALTIMORE, priority 2020, published 2023)

Experiments:
[1] = pharmacokinetics in plasma and brain after intraperitoneal administration (UPLC-MS/MS); assay type: in vivo, mouse; set-up: key to Brain Concentration over time, sex-dependent difference / Plasma Concentration over time, sex-dependent difference: F, female; M, male; NS, not statistically different; settings: i.p. 5 mg/kg; for t1/2 Brain / t1/2 Plasma: terminal half-life; for Brain Concentration over time, sex-dependent difference / Plasma Concentration over time, sex-dependent difference / Brain Total exposure (AUC), sex-dependent difference / Plasma Total exposure (AUC), sex-dependent difference: female vs male mice; for Brain Concentration over time, sex-dependent difference / Plasma Concentration over time, sex-dependent difference: ANOVA, Holm-Šídák post-hoc; for Brain Total exposure (AUC), sex-dependent difference / Plasma Total exposure (AUC), sex-dependent difference: t-test; for brain concentration at 4 h post-treatment: LLOQ 5.0 ng/ml
Description: Male and female CD-1 mice (Charles Rivers Laboratories, Raleigh, NC, USA), 8-11 weeks old at the time of testing, were habituated to the University of Maryland (Baltimore, MD, USA) animal facility for at least one week prior to testing. Mice were group housed 4-5 per cage with a constant 12-hour light cycle (lights on/off at 07:00/19:00). Food and water were available ad libitum. All experiments were performed during the light phase. All animal studies were approved by the University of Maryland School of Medicine Institutional Animal Care and Use Committee and conducted in accordance with the National Institutes of Health Guide for the Care and Use of Laboratory Animals.
(2R,6R)-HNK hydrochloride, (2S,6S)-HNK hydrochloride, (2R,6S)-HNK, (2S,6R)-HNK, (2R,5R)-HNK, (2S,5S)-HNK, (2R,5S)-HNK, (2S,5R)-HNK, (2R,4R)-HNK, (2S,4S)-HNK, (2R,4S)-HNK, and (2S,4R)-HNK hydrochloride were synthesized at the National Center for Advancing Translation Sciences (National Institutes of Health, Rockville, MD, USA) using methods previously described in Morris et al., Org Lett 17:4572-4575 (2017), which is incorporated by reference herein in its entirety. (5R)-methyl-(2R,6R)-HNK was obtained from Organix Inc. (Woburn, MA, USA) or from the National Center for Advancing Translational Sciences (Rockville, MD, USA); synthesis and characterization are described in the Supplemental Information. All compounds were dissolved in 20% (w/v) cyclodextrin (Sigma Aldrich, USA) in saline and administered intraperitoneally (i.p.) in a volume of 7.5 ml/kg.
At 10 min (0.167 h), 30 min (0.5 h), 1 h, 2 h, and 4 h post-treatment, mice were deeply anesthetized (3.5% isoflurane for approximately 2 min). Trunk blood was collected into 1.5-ml polypropylene tubes containing 30 μl of disodium EDTA (0.5 M, pH 8.0) and kept on ice until plasma collection (<30 min). Brains were then removed, flash-frozen in isopentane, and stored at −80° C. until analysis. Blood was centrifuged at 8000×g for 6 min at 4° C. to obtain plasma. Plasma was collected into clean microcentrifuge tubes and stored at −80° C. until analysis.
Ultra-performance liquid chromatography-tandem mass spectrometry (UPLC-MS/MS) methods were developed and optimized to determine the concentration of each HNK in mouse plasma and brain samples following systemic administration. Mass spectrometric analysis was performed on a Waters Xevo TQ-S triple quadrupole instrument using electrospray ionization in positive mode with the selected reaction monitoring. The separation of HNKs from endogenous components was performed on a Waters Acquity UPLC with 0.5 ml/min flow rate and gradient elution. The mobile phase A and B were 0.1% formic acid in water and 0.1% formic acid in acetonitrile, respectively. Plasma and brain concentrations of (2R,6R)-, (2S,6S)-, (2R,4S)-, and (2S,4R)-HNK were determined by hydrophilic interaction liquid chromatography-tandem mass spectrometry (HILIC UPLC-MS/MS) using a BEH amide column (1.7μ, 2.1×50 mm). Plasma and brain concentrations of (2R,6S)-, (2S,6R)-, (2R,5R)- (2S,5S)-, (2R,5S)-, (2S,5R)-, (2R,4R)-, and (2S,4S)-HNK; and (5R)-methyl-(2R,6R)-HNK were determined by reversed phase UPLC-MS/MS based upon a previously described protocol with several modifications using a BEH C18 column ([…], 2.1×50 mm). See Moaddel et al., Talanta 82:1892-1904 (2010), and Zanos et al., Nature 533:481-486 ([…]), both of which are incorporated by reference herein in their entireties.
The gradient for HILIC UPLC method was: 0-0.2 min 98% B; 0.2-1.4 min 98% to 35% B; 1.4-1.8 min 35% to 10% B, 1.9-2.4 min 98% B. The gradient for BEH Cis UPLC method was: 0-0.2 min 1% B; 0.2-1.4 min 1% to 35% B; 1.4-1.8 min 35% to 98% B, 1.8-2.2 min 98% B, 2.3 min 1% B. The analytical run time of the UPLC methods was 2.5 min. The calibration standards and quality control samples were prepared in blank mouse plasma and brain homogenate. Calibration standards ranged from 5.0-5000 ng/ml. […]

[2] = target: NMDARs; settings: read-out: Ki (binding / inhibition of NMDARs); cited from earlier work

SMILES | B:P ratio (brain to plasma AUC ratio) ([1]; female mice) | t1/2 Brain ([1]; female mice) | t1/2 Plasma ([1]; female mice) | Brain Concentration over time, sex-dependent difference [1] | Plasma Concentration over time, sex-dependent difference [1] | Brain Total exposure (AUC), sex-dependent difference [1] | Plasma Total exposure (AUC), sex-dependent difference [1] | B:P ratio (brain to plasma AUC ratio) ([1]; male mice) | Tmax in the brain ([1]; male mice) | t1/2 Brain ([1]; male mice) | t1/2 Plasma ([1]; male mice) | brain concentration at 4 h post-treatment ([1]; females, but not males) | Tmax in the brain ([1]; female mice) | brain concentration at 4 h post-treatment ([1]; both sexes) | Ki [2]
N[C@@]1(c2ccccc2Cl)C[C@H](O)CCC1=O [(2R,4R)-HNK] | 1.2 | 30 min | 30 min | F > M at 10 min | F > M at 10 min | M > F | M > F | 1.3 | 30 min | 36 min | 36 min |  |  |  | 
N[C@@]1(c2ccccc2Cl)C[C@@H](O)CCC1=O [(2R,4S)-HNK] | 1.0 | 18 min | 42 min | M > F at 10, 30, 60 min | M > F at 10, 30 min | M > F | M > F | 1.1 |  | 30 min | 36 min | below LLOQs |  |  | 
N[C@@]1(c2ccccc2Cl)CC[C@@H](O)CC1=O [(2R,5R)-HNK] | 1.4 | 30 min | 30 min | NS | main effect of sex, M > F |  | M > F | 1.2 |  | 24 min | 30 min |  |  |  | 
N[C@@]1(c2ccccc2Cl)CC[C@H](O)CC1=O [(2R,5S)-HNK] | 1.0 | 30 min | 30 min | F > M at 10, 30 min | F > M at 10, 30 min | F > M | F > M | 0.9 |  | 30 min | 30 min |  | 30 min |  | 
N[C@]1(c2ccccc2Cl)C[C@H](O)CCC1=O [(2S,4R)-HNK] | 1.0 | 18 min | 24 min | F > M at 10 min | F > M at 10 min |  |  | 0.9 |  | 24 min | 30 min |  |  | below LLOQs | 
N[C@]1(c2ccccc2Cl)C[C@@H](O)CCC1=O [(2S,4S)-HNK] | 0.9 | 36 min | 42 min | F > M at 10, 30 min | F > M at 10, 30 min | F > M | F > M | 0.7 |  | 36 min | 42 min |  |  |  | 
N[C@]1(c2ccccc2Cl)CC[C@@H](O)CC1=O [(2S,5R)-HNK] | 1.0 | 30 min | 30 min | NS | M > F at 30, 60 min | M > F | M > F | 0.7 | 30 min | 42 min | 36 min |  |  |  | 
N[C@]1(c2ccccc2Cl)CC[C@H](O)CC1=O [(2S,5S)-HNK] | 1.3 | 18 min | 36 min | NS | NS |  |  | 1.2 |  | 18 min | 30 min |  |  | below LLOQs | 
CNC1(c2ccccc2Cl)CCCCC1=O (stereo not shown) [ketamine, reference compound] |  |  |  |  |  |  |  |  |  |  |  |  |  |  | 250 to 1060 nM
